ChEMBL document CHEMBL1240518, “Replacement of the Lys linker with an Arg linker resulting in improved melanoma uptake and reduced renal uptake of Tc-99m-labeled Arg-Gly-Asp-conjugated alpha-melanocyte stimulating hormone hybrid peptide” (Bioorg Med Chem, 2010)
Residues, ends and D or L forms follow the SMILES beside them.

Experiment: Cytotoxicity against mouse B16-F1 cells assessed as reduction of cell survival after 3 hrs by clonogenic assay relative to control

Work on N=C(N)NCCC[C@@H]1NC(=O)CNC(=O)[C@H](CC(=O)O)NC(=O)[C@H](Cc2ccc(O)cc2)NC(=O)[C@H](CC(=O)O)NC1=O (cyclo(DGRDY)) yielded an Activity of 7%.
